Source: patent publication US11214594B2, “Antimicrobial peptide having synergistic antibacterial effect with antibiotics on multidrug resistant bacteria, and use thereof” (priority 2016, dated 2022)
Values after ≈ are worked out from the molar mass of the structure shown. Read-outs that look alike come from different tables or passages of the source. Where a SMILES comes first, the peptide text is derived from it. [ ]: non-standard residue; d: D form.

Key:
MDREC 1229 [1] = type: cell-based, Escherichia coli
Outline: (§1)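 Antibiotic MIC came from antibiotic dilutions added to bacteria (2×10^6 CFU/ml, MH medium) already combined with peptide serially diluted 2:1 from its own MIC. Swapping the roles of the two agents gave the peptide MIC.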

E. coli [2] = type: cell-based, Escherichia coli; details: E. coli
Outline: as §1

MDRST 8009 = type: cell-based, Salmonella typhimurium; details: agent alone
Outline: (§2)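 Broth microdilution in MH medium: bacterial strains diluted to 2×10^6 CFU were mixed with equal volumes of peptide serially diluted twofold in MH medium.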

MDREC 1229 [3] = assay: microbe, parasite or virus in culture; type: cell-based, Escherichia coli
Outline: as §2

E. coli [4] = assay: microbe, parasite or virus in culture; type: cell-based, Escherichia coli; details: 16 h
Outline: as §2

S. epidermidis = assay: microbe, parasite or virus in culture; type: cell-based, Staphylococcus epidermidis
Outline: as §2

B. subtilis = assay: microbe, parasite or virus in culture; type: cell-based, Bacillus subtilis
Outline: as §2

MDREC 1229 [5] = assay: MIC of antibiotic during combined treatment with antimicrobial peptide; type: cell-based, Escherichia coli
Outline: as §1

E. coli [6] = assay: as above; type: cell-based, Escherichia coli; details: for Antibiotic MIC, Erythromycin / Antibiotic MIC, Linezolid / Antibiotic MIC, Vancomycin: E. coli
Outline: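 MIC values for mixed peptide plus antibiotic solutions were measured in MH medium.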

[7] = peptide treatment concentration 1 μg/ml
[8] = peptide treatment concentration 2 μg/ml
[9] = peptide treatment concentration 4 μg/ml
[10] = peptide treatment concentration 6 μg/ml
[11] = peptide treatment concentration 8 μg/ml
[12] = peptide treatment concentration 16 μg/ml
[13] = peptide treatment concentration 32 μg/ml
[14] = peptide treatment concentration 64 μg/ml

`CC[C@H](C)[C@H](NC(=O)[C@H](CCCCN)NC(=O)[C@H](Cc1c[nH]c2ccccc12)NC(=O)[C@@H](N)CCCNC(=N)N)C(=O)N[C@@H](Cc1ccccc1)C(=O)N[C@@H](CCCCN)C(=O)N[C@@H](CCCCN)C(=O)N[C@H](C(=O)N[C@H](CC(C)C)C(=O)N[C@@H](CCCCN)C(=O)N[C@@H](CC(C)C)C(=O)N[C@@H](CC(C)C)C(=O)N[C@@H](Cc1c[nH]cn1)C(=O)N[C@@H](CCCCN)C(=O)N[C@@H](C)C(=O)N[C@@H](CCCCN)C(=O)N[C@@H](CCCCN)C(=O)N[C@@H](Cc1c[nH]c2ccccc12)C(N)=O)[C@@H](C)CC` [PapMA-22, RWK IFK KIl KLL HKA KKW-NH2] (H-RWKIFKKI[dL]KLLHKAKKW-NH2; N-terminus assumed) was tested, and the “Peptide MIC during treatment with antibiotic” value (MDREC 1229 [1]; vancomycin […] (Conc./MIC 1/4)) was 4 µg/mL, the “Peptide MIC during treatment with antibiotic” value (MDREC 1229 [1]; vancomycin […] (Conc./MIC 1/8)) was 8 µg/mL and the “Peptide MIC” value (E. coli [2]; with Erythromycin […] (Conc./MIC 1)) was 0 µg/mL. The “Peptide MIC” value (E. coli [2]; with Linezolid […] (Conc./MIC 1)) was 0 µg/mL, the “Peptide MIC” value (E. coli [2]; with Vancomycin 1024 μg/ml (Conc./MIC 1)) was 0 µg/mL and the “Minimal inhibitory concentration MIC” value (MDRST 8009) was 32 µg/mL (≈ 13.5 µM). The “Minimal inhibitory concentration MIC” value (MDREC 1229 [3]) was 32 µg/mL (≈ 13.5 µM), the “Peptide MIC, peptide alone” value (MDREC 1229 [3]) was 32 µg/mL and the “Minimal inhibitory concentration MIC” value (E. coli [4]) was 32 µg/mL (≈ 13.5 µM). For the same compound, the “Minimal inhibitory concentration MIC” value (S. epidermidis) was greater than 128 µg/mL, the “Minimal inhibitory concentration MIC” value (B. subtilis) was greater than 128 µg/mL and the “Antibiotic MIC, Erythromycin” value (MDREC 1229 [5]; [7]) was 128 µg/mL. The “Antibiotic MIC, Linezolid” value (MDREC 1229 [5]; [7]) was greater than 128 µg/mL, the “Antibiotic MIC, Vancomycin” value (MDREC 1229 [5]; [7]) was greater than 128 µg/mL and the “Antibiotic MIC, Erythromycin” value (MDREC 1229 [5]; [8]) was 32 µg/mL. The “Antibiotic MIC, Linezolid” value (MDREC 1229 [5]; [8]) was greater than 128 µg/mL, the “Antibiotic MIC, Vancomycin” value (MDREC 1229 [5]; [8]) was greater than 128 µg/mL and the “Antibiotic MIC, Erythromycin” value (MDREC 1229 [5]; [9]) was 32 µg/mL. For the same compound, the “Antibiotic MIC, Linezolid” value (MDREC 1229 [5]; [9]) was 128 µg/mL, the “Antibiotic MIC, Vancomycin” value (MDREC 1229 [5]; [9]) was greater than 128 µg/mL and the “Antibiotic MIC, Erythromycin” value (MDREC 1229 [5]; [10]) was 16 µg/mL. For the same compound, the “Antibiotic MIC, Linezolid” value (MDREC 1229 [5]; [10]) was 64 µg/mL, the “Antibiotic MIC, Vancomycin” value (MDREC 1229 [5]; [10]) was greater than 128 µg/mL and the “Antibiotic MIC, Erythromycin” value (MDREC 1229 [5]; [11]) was 4 µg/mL. The “Antibiotic MIC, Linezolid” value (MDREC 1229 [5]; [11]) was 32 µg/mL, the “Antibiotic MIC, Vancomycin” value (MDREC 1229 [5]; [11]) was 64 µg/mL and the “Antibiotic MIC, Erythromycin” value (MDREC 1229 [5]; [12]) was 2 µg/mL. The “Antibiotic MIC, Linezolid” value (MDREC 1229 [5]; [12]) was 16 µg/mL, the “Antibiotic MIC, Vancomycin” value (MDREC 1229 [5]; [12]) was 32 µg/mL and the “Antibiotic MIC, Erythromycin” value (MDREC 1229 [5]; [13]) was 0 µg/mL. For the same compound, the “Antibiotic MIC, Linezolid” value (MDREC 1229 [5]; [13]) was 0 µg/mL, the “Antibiotic MIC, Vancomycin” value (MDREC 1229 [5]; [13]) was 0 µg/mL and the “Antibiotic MIC, Erythromycin” value (MDREC 1229 [5]; [14]) was 0 µg/mL. The “Antibiotic MIC, Linezolid” value (MDREC 1229 [5]; [14]) was 0 µg/mL, the “Antibiotic MIC, Vancomycin” value (MDREC 1229 [5]; [14]) was 0 µg/mL and the “Synergistic effect of antibacterial activity with existing antibiotics compared with PapMA-1” value (E. coli [6]; E. coli and MDREC1229) was “level similar to that of the PapMA-1 peptide”. For the same compound, the “Antibiotic MIC, Erythromycin” value (E. coli [6]; erythromycin combined with peptide at 1 μg/ml) was 128 µg/mL, the “Antibiotic MIC, Erythromycin” value (E. coli [6]; erythromycin combined with peptide at 2 μg/ml) was 32 µg/mL and the “Antibiotic MIC, Erythromycin” value (E. coli [6]; erythromycin combined with peptide at 4 μg/ml) was 16 µg/mL. For the same compound, the “Antibiotic MIC, Erythromycin” value (E. coli [6]; erythromycin combined with peptide at 6 μg/ml) was 8 µg/mL, the “Antibiotic MIC, Erythromycin” value (E. coli [6]; erythromycin combined with peptide at 8 μg/ml) was 2 µg/mL and the “Antibiotic MIC, Erythromycin” value (E. coli [6]; erythromycin combined with peptide at 16 μg/ml) was 1 µg/mL. For the same compound, the “Antibiotic MIC, Erythromycin” value (E. coli [6]; erythromycin combined with peptide at 32 μg/ml) was 0 µg/mL, the “Antibiotic MIC, Erythromycin” value (E. coli [6]; erythromycin combined with peptide at 64 μg/ml) was 0 µg/mL and the “Antibiotic MIC, Linezolid” value (E. coli [6]; linezolid combined with peptide at 1 μg/ml) was greater than 128 µg/mL. The “Antibiotic MIC, Linezolid” value (E. coli [6]; linezolid combined with peptide at 2 μg/ml) was 128 µg/mL, the “Antibiotic MIC, Linezolid” value (E. coli [6]; linezolid combined with peptide at 4 μg/ml) was 64 µg/mL and the “Antibiotic MIC, Linezolid” value (E. coli [6]; linezolid combined with peptide at 6 μg/ml) was 32 µg/mL. The “Antibiotic MIC, Linezolid” value (E. coli [6]; linezolid combined with peptide at 8 μg/ml) was 32 µg/mL, the “Antibiotic MIC, Linezolid” value (E. coli [6]; linezolid combined with peptide at 16 μg/ml) was 16 µg/mL and the “Antibiotic MIC, Linezolid” value (E. coli [6]; linezolid combined with peptide at 32 μg/ml) was 0 µg/mL. For the same compound, the “Antibiotic MIC, Linezolid” value (E. coli [6]; linezolid combined with peptide at 64 μg/ml) was 0 µg/mL, the “Antibiotic MIC, Vancomycin” value (E. coli [6]; vancomycin combined with peptide at 1 μg/ml) was greater than 128 µg/mL and the “Antibiotic MIC, Vancomycin” value (E. coli [6]; vancomycin combined with peptide at 2 μg/ml) was greater than 128 µg/mL. The “Antibiotic MIC, Vancomycin” value (E. coli [6]; vancomycin combined with peptide at 4 μg/ml) was 128 µg/mL, the “Antibiotic MIC, Vancomycin” value (E. coli [6]; vancomycin combined with peptide at 6 μg/ml) was 64 µg/mL and the “Antibiotic MIC, Vancomycin” value (E. coli [6]; vancomycin combined with peptide at 8 μg/ml) was 32 µg/mL. The “Antibiotic MIC, Vancomycin” value (E. coli [6]; vancomycin combined with peptide at 16 μg/ml) was 16 µg/mL, the “Antibiotic MIC, Vancomycin” value (E. coli [6]; vancomycin combined with peptide at 32 μg/ml) was 0 µg/mL and the “Antibiotic MIC, Vancomycin” value (E. coli [6]; vancomycin combined with peptide at 64 μg/ml) was 0 µg/mL.
